± gives the expanded uncertainty stated by the source.

2 compounds from the NIST ThermoML archive (doi:10.1016/j.fluid.2018.11.012) can be followed below.

The conditions of data set [1]: 298.15 K; 101.33 kPa; Liquid; Vibrating tube method.
Data set [2] can be described thus: refractive index (Na D-line) (dimensionless). The conditions noted are these: 298.15 K; 101.33 kPa; Liquid; Standard Abbe refractometry.

As usually defined, the mass density is the mass of a sample divided by its volume. The refractive index is the speed of light in vacuum divided by its phase velocity in the sample. For `CCCCCCCCCCCCCC` [tetradecane], in data set [1], the mass density is on record as 759.38 ± 0.26 kg/m3. Moreover, the refractive index in data set [2] is listed as 1.4269 ± 0.0008.
Taken in the same sequence, the figures for `CC1CCC(=O)O1` (centres undefined) [γ-valerolactone] were 1049.25 ± 0.3 kg/m3 and 1.4312 ± 0.0008.
